Measured values from patent US20240409557A1, “5,6-FUSED AND 6,6-FUSED BICYCLIC ALCOHOLS AND ETHERS AND COMPOSITIONS FOR USE AS 15-PROSTAGLANDIN DEHYDROGENASE MODULATORS” (AMGEN INC., priority 2023, published 2024).

Columns and labels:
15-PGDH in A549 cells = target: T1, 15-PGDH in A549 cells (Homo sapiens, UniProt P15428); assay: A549 cellular 15-PGDH assay (PGE2 accumulation, HTRF); type: cell-based; settings: interleukin-stimulated, inhibitor 24 hrs, PGE2 by competitive HTRF, read-out: A549 Cell Assay IC50
T1 construct: endogenous in cells; host or cells: A549
T1 sequence (P15428 1-266): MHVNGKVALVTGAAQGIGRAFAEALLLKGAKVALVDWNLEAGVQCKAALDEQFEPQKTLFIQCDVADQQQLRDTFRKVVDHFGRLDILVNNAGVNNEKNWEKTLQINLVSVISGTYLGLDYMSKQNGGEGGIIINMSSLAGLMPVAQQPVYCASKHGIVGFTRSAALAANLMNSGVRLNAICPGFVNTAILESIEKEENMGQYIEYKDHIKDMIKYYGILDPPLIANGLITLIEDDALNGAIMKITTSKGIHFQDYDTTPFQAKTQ
From the text: This assay was used for the quantification of IL-13 induced Native Prostaglandin E2 (PGE2) produced by A549 cells (epithelial cells from lung carcinoma) in cell culture supernatants. […] PGE2 was detected in a competitive HTRF assay by using anti PGE2 antibody labeled with Europium cryptate, and PGE2 labeled with […]. The PGE2 present in the sample competes with the binding between the two HTRF detection solutions (reagents) and thereby prevents FRET from occurring. The specific signal is inversely proportional to the PGE2 concentration. From this binding data, IC50 values were calculated.

[1] = target: T2, human recombinant 15-PGDH (Homo sapiens, UniProt P15428); assay: Recombinant 15-PGDH enzymatic inhibition assay (PGDH-Lumi, NADH signal); type: biochemical; settings: recombinant 15-PGDH; 15 min pre-incubation, 60 min reaction with PGE2 and NAD+, NADH signal
T2 sequence (P15428 1-266): T1 sequence (P15428 1-266)
Method: These assays measured 15-PGDH enzymatic activity by quantifying the amount of NADH produced during a 60-minute reaction initiated by the addition of PGE2 and NAD+. Under the conditions of these experiments, the increase of NADH signal upon oxidation of PGE2 and reduction of NAD+ was linearly proportional to 15-PGDH enzymatic activity. The recombinant human, mouse, rat and dog 15-PGDH enzymatic assays were performed in a 25 μL volume of reaction buffer containing 50 mM Tris, pH 7.5, 0.01% Tween-20 and […] DTT in a 384-well microtiter plate. In concentration-response experiments with tested compounds, 22 concentrations from 2-fold serial dilutions in DMSO were pre-incubated with 15-PGDH for 15 minutes at room temperature. Then, PGE2 and β-NAD+ were added to initiate the 15-PGDH reaction. After 60 minutes at room temperature, the reaction was quenched and NADH signal was measured using a microtiter plate reader.
The following data (Table 27-1) provides the IC50 in μM of each compound for inhibiting enzymatic activity of the recombinant 15-PGDH in the assay described above.

Cn1cc2cc(-c3ccc4cc(C(O)[C@H]5CCOC5)sc4n3)cnc2n1 (single isomer, unassigned) [B19(RS)S]
IC50 (15-PGDH in A549 cells): 1.03 nM
IC50 [1]: 0.637 nM

C[C@@H](O)c1cc2c(-c3ccnn3C)cc(-c3cnc4nn(C)cc4c3)nc2s1 (single isomer, unassigned) [Compound B6R]
IC50 (15-PGDH in A549 cells): 4.86 nM
IC50 [1]: 1.84 nM

C[C@H](O)c1cc2c(-c3ccnn3C)cc(-c3cnc4nn(C)cc4c3)nc2s1 (single isomer, unassigned) [Compound B6S]
IC50 (15-PGDH in A549 cells): 102 nM
IC50 [1]: 89.6 nM

Cn1cc2cc(-c3cc(C4CC4)c4cc(C(O)C5CCC5)sc4n3)cnc2n1 (single isomer, unassigned) [Compound B8, cyclobutyl(4-cyclopropyl-6-(2-methyl-2H-pyrazolo[3,4-b]pyridin-5-yl)thieno[2,3-b]pyridin-2-yl)methanol]
IC50 (15-PGDH in A549 cells): 0.919 nM
IC50 [1]: 0.393 nM

C[C@@H](O)c1cc2c(C3CC3)cc(-c3cnc4nn(C)cc4c3)nc2s1 (single isomer, unassigned) [Compound B11R]
IC50 (15-PGDH in A549 cells): 26.9 nM
IC50 [1]: 3.42 nM

CC[C@@H](O)c1cc2c(C3CC3)cc(-c3cnc4nn(C)cc4c3)nc2s1 (single isomer, unassigned) [Compound B13R]
IC50 (15-PGDH in A549 cells): 3.2 nM
IC50 [1]: 0.57 nM

Cn1cc2cc(-c3ccc4cc([C@H](O)C5CC5)sc4n3)cnc2n1 (single isomer, unassigned) [Compound B16R]
IC50 (15-PGDH in A549 cells): 0.149 nM
IC50 [1]: 0.325 nM

Cn1cc2cc(-c3ccc4cc([C@@H](O)C5CC5)sc4n3)cnc2n1 (single isomer, unassigned) [Compound B16S]
IC50 (15-PGDH in A549 cells): 9.58 nM
IC50 [1]: 27 nM

Cn1cc2cc(-c3ccc4cc([C@H](O)[C@@H]5CCOC5)sc4n3)cnc2n1 (single isomer, unassigned) [Compound B19RR]
IC50 (15-PGDH in A549 cells): 0.381 nM
IC50 [1]: 0.244 nM

Cn1cc2cc(-c3ccc4cc([C@@H](O)[C@@H]5CCOC5)sc4n3)cnc2n1 (single isomer, unassigned) [Compound B19SR]
IC50 (15-PGDH in A549 cells): 3.53 nM
IC50 [1]: 1.87 nM

Cn1cc2cc(-c3ccc4cc([C@H](O)C(F)(F)F)sc4n3)cnc2n1 (single isomer, unassigned) [Compound B23R]
IC50 (15-PGDH in A549 cells): 0.389 nM
IC50 [1]: 0.422 nM

Cn1cc2cc(-c3ccc4cc([C@@H](O)C(F)(F)F)sc4n3)cnc2n1 (single isomer, unassigned) [Compound B23S]
IC50 (15-PGDH in A549 cells): 19.2 nM
IC50 [1]: 121 nM

CC(C)[C@@H](O)c1cc2ccc(-c3cnc4nn(C)cc4c3)nc2s1 (single isomer, unassigned) [Compound B24R]
IC50 (15-PGDH in A549 cells): 0.614 nM
IC50 [1]: 0.258 nM

CCC[C@@H](O)c1cc2ccc(-c3cnc4nn(C)cc4c3)nc2s1 (single isomer, unassigned) [Compound B27R]
IC50 (15-PGDH in A549 cells): 0.728 nM
IC50 [1]: 0.255 nM

CCC[C@H](O)c1cc2ccc(-c3cnc4nn(C)cc4c3)nc2s1 (single isomer, unassigned) [Compound B27S]
IC50 (15-PGDH in A549 cells): 1.78 nM
IC50 [1]: 12.3 nM

Cn1cc2cc(-c3ccc4cc([C@H](O)C5COC5)sc4n3)cnc2n1 (single isomer, unassigned) [Compound B28R]
IC50 (15-PGDH in A549 cells): 0.16 nM
IC50 [1]: 0.424 nM

Cn1cc2cc(-c3ccc4cc([C@@H](O)C5COC5)sc4n3)cnc2n1 (single isomer, unassigned) [Compound B28S]
IC50 (15-PGDH in A549 cells): 9.56 nM
IC50 [1]: 12.2 nM

COCC[C@@H](O)c1cc2ccc(-c3cnc4nn(C)cc4c3)nc2s1 (single isomer, unassigned) [Compound B29R]
IC50 (15-PGDH in A549 cells): 0.745 nM
IC50 [1]: 0.209 nM

COCC[C@H](O)c1cc2ccc(-c3cnc4nn(C)cc4c3)nc2s1 (single isomer, unassigned) [Compound B29S]
IC50 (15-PGDH in A549 cells): 3.08 nM
IC50 [1]: 10.5 nM

Cn1cc2cc(-c3ccc4cc([C@@H](O)C5CC(F)(F)C5)sc4n3)cnc2n1 (single isomer, unassigned) [Compound B30S]
IC50 (15-PGDH in A549 cells): 0.406 nM
IC50 [1]: 0.35 nM

Cn1cc2cc(-c3ccc4cc([C@H](O)C5CCC(F)(F)CC5)sc4n3)cnc2n1 (single isomer, unassigned) [Compound B31R]
IC50 (15-PGDH in A549 cells): 0.53 nM
IC50 [1]: 0.203 nM

Cn1ncc2cc(-c3ccc4cc([C@H](O)C5CCOCC5)sc4n3)ccc21 (single isomer, unassigned) [Compound B34R]
IC50 (15-PGDH in A549 cells): 39.8 nM
IC50 [1]: 12.4 nM

Cn1ncc2cc(-c3ccc4cc([C@H](O)C5CCOCC5)sc4n3)cnc21 (single isomer, unassigned) [Compound B35R]
IC50 (15-PGDH in A549 cells): 18.2 nM
IC50 [1]: 1.09 nM

O[C@@H](c1cc2ccc(-c3ccc4[nH]ncc4c3)nc2s1)C1CCOCC1 (single isomer, unassigned) [Compound B37R]
IC50 (15-PGDH in A549 cells): 61.7 nM
IC50 [1]: 8.74 nM

Cn1nc2cc(-c3ccc4cc([C@H](O)C5CCOCC5)sc4n3)cnc2n1 (single isomer, unassigned) [Compound B39R]
IC50 (15-PGDH in A549 cells): 2.37 nM
IC50 [1]: 0.423 nM

O[C@@H](c1cc2ccc(-c3ccc4oncc4c3)nc2s1)C1CCOCC1 (single isomer, unassigned) [Compound B43R]
IC50 (15-PGDH in A549 cells): 196 nM
IC50 [1]: 13.8 nM

O[C@@H](c1cc2ccc(-c3cnc4[nH]nnc4c3)nc2s1)C1CCOCC1 (single isomer, unassigned) [Compound B44R]
IC50 (15-PGDH in A549 cells): 2.61 nM
IC50 [1]: 0.464 nM

Cc1nc2cc(-c3ccc4cc([C@H](O)C5CC(F)(F)C5)sc4n3)ccc2o1 (single isomer, unassigned) [Compound B46R]
IC50 (15-PGDH in A549 cells): 0.697 nM
IC50 [1]: 0.277 nM

Cc1nc2cc(-c3ccc4cc([C@@H](O)C5CC(F)(F)C5)sc4n3)ccc2o1 (single isomer, unassigned) [Compound B46S]
IC50 (15-PGDH in A549 cells): 17.4 nM
IC50 [1]: 2.1 nM

O[C@@H](c1cc2ccc(-c3cnc4[nH]ncc4c3)nc2s1)C1CC(F)(F)C1 (single isomer, unassigned) [Compound B47R]
IC50 (15-PGDH in A549 cells): 0.366 nM
IC50 [1]: 0.21 nM

O[C@H](c1cc2ccc(-c3cnc4[nH]ncc4c3)nc2s1)C1CC(F)(F)C1 (single isomer, unassigned) [Compound B47S]
IC50 (15-PGDH in A549 cells): 1.93 nM
IC50 [1]: 0.758 nM

Cc1cn2cc(-c3ccc4cc([C@H](O)C5CC(F)(F)C5)sc4n3)ccc2n1 (single isomer, unassigned) [Compound B48R]
IC50 (15-PGDH in A549 cells): 1.77 nM
IC50 [1]: 0.4 nM

Cn1cnc(-c2ccc3cc([C@H](O)C4CC(F)(F)C4)sc3n2)cc1=O (single isomer, unassigned) [Compound B49R]
IC50 (15-PGDH in A549 cells): 0.723 nM
IC50 [1]: 0.26 nM

Cn1ccc2cc(-c3ccc4cc([C@H](O)C5CC(F)(F)C5)sc4n3)ccc2c1=O (single isomer, unassigned) [Compound B50R]
IC50 (15-PGDH in A549 cells): 0.52 nM
IC50 [1]: 0.343 nM

Cn1ccc2cc(-c3ccc4cc([C@@H](O)C5CC(F)(F)C5)sc4n3)ccc2c1=O (single isomer, unassigned) [Compound B50S]
IC50 (15-PGDH in A549 cells): 7.99 nM
IC50 [1]: 1.86 nM

Cc1nc2ccc(-c3ccc4cc([C@H](O)C5CC(F)(F)C5)sc4n3)cc2o1 (single isomer, unassigned) [Compound B51R]
IC50 (15-PGDH in A549 cells): 0.357 nM
IC50 [1]: 0.164 nM

O[C@@H](c1cc2ccc(-c3ccc4nccnc4c3)nc2s1)C1CC(F)(F)C1 (single isomer, unassigned) [Compound B52R]
IC50 (15-PGDH in A549 cells): 0.69 nM
IC50 [1]: 0.291 nM

O[C@H](c1cc2ccc(-c3ccc4nccnc4c3)nc2s1)C1CC(F)(F)C1 (single isomer, unassigned) [Compound B52S]
IC50 (15-PGDH in A549 cells): 11.7 nM
IC50 [1]: 1.6 nM

CCn1cc2cc(-c3ccc4cc([C@H](O)C5CC(F)(F)C5)sc4n3)cnc2n1 (single isomer, unassigned) [Compound B53R]
IC50 (15-PGDH in A549 cells): 0.354 nM
IC50 [1]: 0.222 nM

CCn1cc2cc(-c3ccc4cc([C@@H](O)C5CC(F)(F)C5)sc4n3)cnc2n1 (single isomer, unassigned) [Compound B53S]
IC50 (15-PGDH in A549 cells): 0.288 nM
IC50 [1]: 0.436 nM

CCC[C@@H](O)c1cc2ccc(-c3cnc4nn(C)cc4c3)cc2s1 (single isomer, unassigned) [Compound B54R]
IC50 (15-PGDH in A549 cells): 11.8 nM
IC50 [1]: 4.11 nM

Cc1cn2ccc(-c3ccc4cc([C@H](O)C5CC(F)(F)C5)sc4n3)cc2n1 (single isomer, unassigned) [Compound B55R]
IC50 (15-PGDH in A549 cells): 0.657 nM
IC50 [1]: 0.308 nM

O[C@]1(c2cc3cnc(-c4cnc5nncn5c4)nc3s2)C[C@H](C(F)(F)F)C1 [Compound C129C, cis-1-(2-([1,2,4]triazolo[4,3-a]pyrimidin-6-yl)thieno[2,3-d]pyrimidin-6-yl)-3-(trifluoromethyl)cyclobutanol]
IC50 [1]: 3.5 nM
